From the supplement of paper PMC11451515

Tested on: NOMO1
Assay: cell viability relative to DMSO control; higher = less cytotoxic
Details: 48 h
Method in brief: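 Three leukemia lines were tested: NOMO1 and SEM at 500 cells/well and P12-Ichikawa at 1000 cells/well. Each was adapted for at least four passages in each medium and seeded in 5 μl in 1536-well plates, and library compounds in DMSO were pin-dosed from 47 μM to 0.79 nM in 11 threefold steps. After 48 h at 37°C, CellTiter-Glo One luminescence was read. Viability is a percentage relative to DMSO wells on each plate, with cell-free wells as background.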

[1] = HPLM + 10% dialyzed FBS, 0.000781 µM
[2] = HPLM + 10% dialyzed FBS, 0.00234 µM
[3] = HPLM + 10% dialyzed FBS, 0.00702 µM
[4] = HPLM + 10% dialyzed FBS, 0.0211 µM
[5] = HPLM + 10% dialyzed FBS, 0.0632 µM
[6] = HPLM + 10% dialyzed FBS, 0.19 µM
[7] = HPLM + 10% dialyzed FBS, 0.569 µM
[8] = HPLM + 10% dialyzed FBS, 1.71 µM
[9] = HPLM + 10% dialyzed FBS, 5.12 µM
[10] = HPLM + 10% dialyzed FBS, 15.4 µM
[11] = HPLM + 10% dialyzed FBS, 46.1 µM
[12] = RPMI 5 mM glucose + 10% FBS, 0.000781 µM
[13] = RPMI 5 mM glucose + 10% FBS, 0.00234 µM
[14] = RPMI 5 mM glucose + 10% FBS, 0.00702 µM
[15] = RPMI 5 mM glucose + 10% FBS, 0.0211 µM
[16] = RPMI 5 mM glucose + 10% FBS, 0.0632 µM
[17] = RPMI 5 mM glucose + 10% FBS, 0.19 µM
[18] = RPMI 5 mM glucose + 10% FBS, 0.569 µM
[19] = RPMI 5 mM glucose + 10% FBS, 1.71 µM
[20] = RPMI 5 mM glucose + 10% FBS, 5.12 µM
[21] = RPMI 5 mM glucose + 10% FBS, 15.4 µM
[22] = RPMI 5 mM glucose + 10% FBS, 46.1 µM
[23] = RPMI 5 mM glucose + 10% dialyzed FBS, 0.000781 µM
[24] = RPMI 5 mM glucose + 10% dialyzed FBS, 0.00234 µM
[25] = RPMI 5 mM glucose + 10% dialyzed FBS, 0.00702 µM
[26] = RPMI 5 mM glucose + 10% dialyzed FBS, 0.0211 µM
[27] = RPMI 5 mM glucose + 10% dialyzed FBS, 0.0632 µM
[28] = RPMI 5 mM glucose + 10% dialyzed FBS, 0.19 µM
[29] = RPMI 5 mM glucose + 10% dialyzed FBS, 0.569 µM
[30] = RPMI 5 mM glucose + 10% dialyzed FBS, 1.71 µM
[31] = RPMI 5 mM glucose + 10% dialyzed FBS, 5.12 µM
[32] = RPMI 5 mM glucose + 10% dialyzed FBS, 15.4 µM
[33] = RPMI 5 mM glucose + 10% dialyzed FBS, 46.1 µM

| Compound | cell viability [1] [%] | cell viability [2] [%] | cell viability [3] [%] | cell viability [4] [%] | cell viability [5] [%] | cell viability [6] [%] | cell viability [7] [%] | cell viability [8] [%] | cell viability [9] [%] | cell viability [10] [%] | cell viability [11] [%] | cell viability [12] [%] | cell viability [13] [%] | cell viability [14] [%] | cell viability [15] [%] | cell viability [16] [%] | cell viability [17] [%] | cell viability [18] [%] | cell viability [19] [%] | cell viability [20] [%] | cell viability [21] [%] | cell viability [22] [%] | cell viability [23] [%] | cell viability [24] [%] | cell viability [25] [%] | cell viability [26] [%] | cell viability [27] [%] | cell viability [28] [%] | cell viability [29] [%] | cell viability [30] [%] | cell viability [31] [%] | cell viability [32] [%] | cell viability [33] [%] |
| --- | --- | --- | --- | --- | --- | --- | --- | --- | --- | --- | --- | --- | --- | --- | --- | --- | --- | --- | --- | --- | --- | --- | --- | --- | --- | --- | --- | --- | --- | --- | --- | --- | --- |
| Oc1cc(-c2nc(-c3ccccc3)[nH]c2-c2ccncc2)ccc1Cl | 111 | 119 | 119 | 112 | 123 | 120 | 108 | 84.2 | 78.8 | 49.2 | 21.4 | 106 | 104 | 107 | 107 | 121 | 103 | 109 | 102 | 107 | 87.1 | 32.2 | 101 | 107 | 121 | 107 | 123 | 109 | 104 | 92.1 | 81.3 | 74.8 | 32 |
| COc1cc(NCc2ccc3nc(N)nc(N)c3c2C)cc(OC)c1OC | 90.2 | 91.7 | 98.9 | 95.1 | 93.5 | 98.4 | 89.5 | 44.4 | 36 | 34.2 | 15.9 | 79.3 | 88 | 80.9 | 85.7 | 84.7 | 89.3 | 93.5 | 83.2 | 99.6 | 86.9 | 9.99 | 87.2 | 88.5 | 86.2 | 91.1 | 91 | 107 | 94.5 | 81.1 | 68.8 | 37.9 | 16.6 |
| C=CC(=O)Nc1cccc(Sc2nc(Nc3ccc(N4CCN(C)CC4)cc3)ncc2Cl)c1 | 102 | 103 | 101 | 104 | 110 | 109 | 127 | 114 | 117 | 98.5 | 24.9 | 97.3 | 104 | 121 | 104 | 101 | 120 | 109 | 116 | 113 | 119 | 8.7 | 95.4 | 101 | 97.1 | 92.1 | 112 | 93 | 98.2 | 97.5 | 107 | 107 | 11.6 |
| CCCOc1ccc(C(=O)OCCN(CC)CC)cc1N | 109 | 124 | 124 | 121 | 140 | 130 | 132 | 139 | 121 | 112 | 106 | 107 | 115 | 122 | 123 | 107 | 120 | 113 | 111 | 123 | 118 | 118 | 111 | 127 | 115 | 118 | 120 | 128 | 121 | 119 | 117 | 131 | 121 |
| COCCn1c2c([n+](Cc3cnccn3)c1C)C(=O)c1ccccc1C2=O | – | – | – | – | – | – | – | – | – | – | – | 127 | 123 | 113 | 112 | 104 | 35.3 | 7.45 | 6.58 | 6.62 | 4.16 | 1.59 | – | – | – | – | – | – | – | – | – | – | – |
| Oc1ccc(OCc2ccccc2)cc1 | 108 | 131 | 116 | 106 | 132 | 108 | 102 | 107 | 105 | 79.7 | 48.6 | 119 | 113 | 127 | 120 | 114 | 127 | 105 | 104 | 101 | 110 | 87.8 | 110 | 116 | 105 | 112 | 108 | 106 | 114 | 113 | 116 | 89.9 | 60.7 |
| O=C(c1cncc(Br)c1)N1CCC(N2CCCC2)CC1 | 97.9 | 122 | 124 | 110 | 103 | 105 | 97.1 | 105 | 103 | 92.2 | 85.3 | 93.5 | 95.9 | 110 | 90.6 | 91.4 | 96.5 | 102 | 93.1 | 94.6 | 85.4 | 84.4 | 112 | 105 | 106 | 106 | 105 | 103 | 100 | 100 | 98.7 | 98.7 | 95.9 |
